Assays:
[1] = test system: annual sugar beet variety (SLC03); experiment: Plant growth regulator activity, preemergence; type: in vivo; settings: Beta vulgaris, pre-emergence; 6-7 weeks; read-out: Bolting Inhibition (preemergence), concentration with observed effect
From the text: Using a regular biennial variety, even a bolting-susceptible variety would require a cold treatment of around 10-16 weeks plus a hormone treatement in conjunction with specific light intensities. Thus, for a screening organism, we selected one which would consistently produce bolting on a regular schedule. The screen is run with an annual sugar beet variety (SLC03) provided by Dr. Richard J. Hecker, Fort Collins, Colo. This variety is an inbred which bolts in the 6- to 8-leaf stage without any need for vernalization. This allows the screen to be run entirely in the greenhouse with all 110 chemical compounds tested on one tray. The sugarbeets are grown in 3×3 inch square pots in a greenhouse sandy loam potting mix. The sugarbeets are sprayed with test compounds when they are 2 to 3 weeks old (2 true leaves). The compounds are dissolved in acetone and diluted with water containing Tween 20 as a wetting agent. The concentration of acetone in the final spray is 20% and the concentration of Tween 20 is 0.05 percent. The plants are examined for the appearance of a bolt 4 weeks after spraying.
Preemergence tests are conducted by spraying formulated chemical on seeds placed on potting soil. The sprayed seeds are then covered with 1/4 inch of potting soil and the pots are watered. Bolting is evaluated 6-7 weeks after the initiation of the test. At this time untreated plants have a vigorous bolting stem with visible flowers.

[2] = test system: nitrification of ammonium nitrogen; experiment: Suppression of nitrification of ammonium nitrogen in soil; settings: 27° C.
Summary of the method: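 Value is % NH4-N remaining after a two-week, 27° C incubation of treated soil held at 1/3 bar tension moisture. Nitrate was measured with an ion-selective electrode after extraction with ammonium sulfate solution and 10 min shaking.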

[3] = test system: rice; experiment: Preemergent control of plant species; type: in vivo, Oryza sativa; settings: Oryza sativa, pre-emergence, 336 h; 0.25 lb/acre; read-out: percent preemergent control
Summary of the method: (§1)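 Seeds planted in good agricultural soil beds; active ingredients then applied to the bed surface as aqueous emulsion at listed rates. Beds kept two weeks in greenhouse with watering. Control scored against water-treated beds.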

[4] = test system: cotton; experiment: Preemergent control of plant species; type: in vivo, Gossypium spp.; settings: Gossypium hirsutum, pre-emergence, 336 h; 0.25 lb/acre; read-out: percent preemergent control
Summary of the method: as §1

[5] = test system: pigweed; experiment: Preemergent control of plant species; type: in vivo, Amaranthus spp.; settings: Amaranthus retroflexus, pre-emergence, 336 h; 0.25 lb/acre; read-out: percent preemergent control
Summary of the method: as §1

[6] = test system: yellow foxtail; experiment: Preemergent control of plant species; type: in vivo, Setaria lutescens; settings: Setaria, pre-emergence, 336 h; 0.25 lb/acre; read-out: percent preemergent control
Summary of the method: as §1

[7] = test system: crabgrass; experiment: Preemergent control of plant species; type: in vivo, Digitaria spp.; settings: Digitaria sanguinalis, pre-emergence, 336 h; 0.25 lb/acre; read-out: percent preemergent control
Summary of the method: as §1

[8] = test system: jimsonweed; experiment: Preemergent control of plant species; type: in vivo, Datura stramonium; settings: Datura stramonium, pre-emergence, 336 h; 0.25 lb/acre; read-out: percent preemergent control
Summary of the method: as §1

[9] = test system: sorghum; experiment: Preemergent control of plant species; type: in vivo, Sorghum vulgare; settings: Sorghum, pre-emergence, 336 h; 0.25 lb/acre; read-out: percent preemergent control
Summary of the method: as §1

[10] = test system: rape; experiment: Preemergent control of plant species; type: in vivo, Brassica napus; settings: Brassica napus, pre-emergence, 336 h; 0.25 lb/acre; read-out: percent preemergent control
Summary of the method: as §1

[11] = test system: rice; experiment: Control of aquatic plant species (paddy water); type: in vivo, Oryza sativa; settings: Oryza sativa, 216 h, nine days, read-out: Percent control
Summary of the method: (§2)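 Percent control is scored nine days after treatment. Plants go into about 2 inches of soil at the 1-2 inch stage and are flooded to about 1 inch, then test compound in acetone concentrate is injected into the standing water at a volume chosen for the desired concentration.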

[12] = test system: wild oats; experiment: Preemergent control of plant species; type: in vivo; settings: Avena fatua, pre-emergence, 336 h; 0.25 lb/acre; read-out: percent preemergent control
Summary of the method: as §1

[13] = test system: velvetleaf; experiment: Preemergent control of plant species; type: in vivo, Abutilon theophrasti; settings: Abutilon theophrasti, pre-emergence, 336 h; 0.25 lb/acre; read-out: percent preemergent control
Summary of the method: as §1

[14] = test system: barnyardgrass; experiment: Control of aquatic plant species (paddy water); type: in vivo, Echinochloa crusgalli; settings: Echinochloa crus-galli, 216 h, nine days, read-out: Percent control
Protocol: In testing for such utility, the plant species to be tested were transplanted into 16 oz. containers into about 2 inches of soil when they were in the 1-2 inch stage and then flooded to a depth of about 1 inch. An acetone concentrate of the chemical to be tested was then injected into the paddy water, the volume injected being varied as desired to provide the desired concentration. Percent control was evaluated nine days after application.

[15] = test system: corn; experiment: Preemergent control of plant species; type: in vivo, Zea mays; settings: Zea mays, pre-emergence, 336 h; 0.25 lb/acre; read-out: percent preemergent control
Summary of the method: as §1

[16] = test system: sugar beet; experiment: Preemergent control of plant species; type: in vivo, Beta saccharifera; settings: Beta vulgaris, pre-emergence, 336 h; 0.25 lb/acre; read-out: percent preemergent control
Summary of the method: as §1

[17] = test system: sprangletop; experiment: Control of aquatic plant species (paddy water); type: in vivo, Leptochloa filiformis; settings: Leptochloa filiformis, 216 h, nine days, read-out: Percent control
Summary of the method: as §2

[18] = test system: johnson grass; experiment: Preemergent control of plant species; type: in vivo, Sorghum halepense; settings: Sorghum halepense, pre-emergence, 336 h; 0.25 lb/acre; read-out: percent preemergent control
Summary of the method: as §1

[19] = test system: soybean; experiment: Preemergent control of plant species; type: in vivo, Glycine max.; settings: Glycine max, pre-emergence, 336 h; 0.25 lb/acre; read-out: percent preemergent control
Summary of the method: as §1

[20] = test system: yellow nutsedge; experiment: Control of aquatic plant species (paddy water); type: in vivo, Cyperus esculentus; settings: Cyperus, 216 h, nine days, read-out: Percent control
Summary of the method: as §2

[21] = test system: wheat; experiment: Preemergent control of plant species; type: in vivo, Triticum aestivum; settings: Triticum aestivum, pre-emergence, 336 h; 0.25 lb/acre; read-out: percent preemergent control
Summary of the method: as §1

[22] = test system: barnyardgrass; experiment: Preemergent control of plant species; type: in vivo, Echinochloa crusgalli; settings: Echinochloa crus-galli, pre-emergence, 336 h; 0.25 lb/acre; read-out: percent preemergent control
Summary of the method: as §1

[23] = test system: annual morning glory; experiment: Preemergent control of plant species; type: in vivo, Ipomoea spp.; settings: Ipomoea, pre-emergence, 336 h; 0.25 lb/acre; read-out: percent preemergent control
Summary of the method: as §1

[24] = test system: yellow nutsedge; experiment: Preemergent control of plant species; type: in vivo, Cyperus esculentus; settings: Cyperus, pre-emergence, 336 h; 0.25 lb/acre; read-out: percent preemergent control
Summary of the method: as §1

| SMILES | minimal effective concentration [1] [µg/mL] | % NH4-N Remaining After 2 Weeks Incubation ([2]; 0.01 ppm) [%] | % NH4-N Remaining After 2 Weeks Incubation ([2]; 1 ppm) [%] | % NH4-N Remaining After 2 Weeks Incubation ([2]; 10 ppm) [%] | plant injury at 280.212 g/ha [3] [%] | plant injury at 280.212 g/ha [4] [%] | pest or weed control at 280.212 g/ha [5] [%] | pest or weed control at 280.212 g/ha [6] [%] | pest or weed control at 280.212 g/ha [7] [%] | pest or weed control at 280.212 g/ha [8] [%] | plant injury at 280.212 g/ha [9] [%] | plant injury at 280.212 g/ha [10] [%] | pest or weed control at 280.212 g/ha [12] [%] | pest or weed control at 280.212 g/ha [13] [%] | plant injury at 280.212 g/ha [15] [%] | plant injury at 280.212 g/ha [16] [%] | % NH4-N Remaining After 2 Weeks Incubation ([2]; 0.1 ppm) [%] | pest or weed control at 280.212 g/ha [18] [%] | plant injury at 280.212 g/ha [19] [%] | plant injury at 280.212 g/ha [21] [%] | also measured |
| --- | --- | --- | --- | --- | --- | --- | --- | --- | --- | --- | --- | --- | --- | --- | --- | --- | --- | --- | --- | --- | --- |
| CCN(C)S(=O)(=O)c1ccccc1NS(=O)(=O)c1nc2ncc(Cl)cn2n1 [Compound 132] | 400 |  |  |  |  |  |  |  |  |  |  |  |  |  |  |  |  |  |  |  |  |
| CCN(C)S(=O)(=O)c1ccccc1NS(=O)(=O)c1nc2nc(C)cc(C)n2n1 [Compound 16] | 400 | 0 | 26 | 67 |  |  |  |  |  |  |  |  |  |  |  |  |  |  |  |  | % NH4-N Remaining After 2 Weeks Incubation ([2]; 0.125 ppm): 0% |
| Cc1cc(C)n2nc(S(=O)(=O)Nc3c(Cl)cccc3Br)nc2n1 [Compound 39] |  | 49 | 91 | 100 | 97 | 95 | 100 | 97 | 70 | 100 | 95 | 95 | 0 | 95 | 95 | 97 | 78 | 95 | 95 | 0 | pest or weed control at 31 g/ha ([11]; 0.031 Kg/Ha): 0%; pest or weed control at 250 g/ha ([11]; 0.25 Kg/Ha): 75%; pest or weed control at 31 g/ha ([14]; 0.031 Kg/Ha): 20%; pest or weed control at 250 g/ha ([14]; 0.25 Kg/Ha): 99%; pest or weed control at 31 g/ha ([17]; 0.031 Kg/Ha): 0%; pest or weed control at 250 g/ha ([17]; 0.25 Kg/Ha): 75%; pest or weed control at 31 g/ha ([20]; 0.031 Kg/Ha): 85%; pest or weed control at 250 g/ha ([20]; 0.25 Kg/Ha): 99%; pest or weed control at 280.212 g/ha [22]: 97%; pest or weed control at 280.212 g/ha [23]: 90%; pest or weed control at 280.212 g/ha [24]: 100% |
| COC(=O)c1cccc(C)c1NS(=O)(=O)c1nc2nc(C)cc(C)n2n1 [Compound 50] |  | 0 | 73 | 92 | 97 | 80 | 100 | 95 | 25 | 100 | 100 | 95 | 60 | 93 | 99 | 100 | 38 | 95 | 95 | 100 | pest or weed control at 125 g/ha ([11]; 0.125 Kg/Ha): 97%; pest or weed control at 125 g/ha ([14]; 0.125 Kg/Ha): 97%; pest or weed control at 125 g/ha ([17]; 0.125 Kg/Ha): 97%; pest or weed control at 125 g/ha ([20]; 0.125 Kg/Ha): 97%; pest or weed control at 280.212 g/ha [22]: 95%; pest or weed control at 280.212 g/ha [23]: 80%; pest or weed control at 280.212 g/ha [24]: 99% |
| C=CCSc1ccccc1NS(=O)(=O)c1nc2nc(C)cc(C)n2n1 [Compound 66] | 400 |  | 66 |  |  |  |  |  |  |  |  |  |  |  |  |  |  |  |  |  | % NH4-N Remaining After 2 Weeks Incubation ([2]; 0.06 ppm): 0%; % NH4-N Remaining After 2 Weeks Incubation ([2]; 0.25 ppm): 41%; % NH4-N Remaining After 2 Weeks Incubation ([2]; 4 ppm): 78% |
| Cc1cc(C)n2nc(S(=O)(=O)Nc3ccccc3C#N)nc2n1 [Compound 14] | 400 | 0 | 52 | 77 |  |  |  |  |  |  |  |  |  |  |  |  | 10 |  |  |  |  |

Reference: patent publication US4740233A, “Substituted 1,2,4-triazolo[1,5-a]-pyrimidine-2-sulfonamides and compositions and methods of controlling undesired vegetation and suppressing the nitrification of ammonium nitrogen in soil” (The Dow Chemical Company, priority 1986, dated 1988)
